Values joined by “and” are separate entries in the source; they are usually repeats but may differ in a detail not shown here. Equal values may be shown once. Inconclusive results and toxic doses are left out. Square brackets hold non-standard residues; d marks the D form. Peptide text beside a SMILES is read from it. * marks the point of attachment. ξ: configuration not given here. Cbz = O=C(OCc1ccccc1)*; ξT = CC(O)C(N)C(=O)O
System: P388 leukemia ip, CD2F1 mice, survival T/C
Test: NCI In Vivo Anticancer Drug Screen. Data for tumor model P388 Leukemia (intraperitoneal) in CD2F1 (CDF1) mice
Settings: endpoint: median survival time, higher = longer survival
How it was run: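 Mice carrying the transplanted tumor received test compound or vehicle. Survival was recorded in each group, and the value is the treated-group measurement divided by that of the vehicle-treated control group.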

[1] = dose: 240.0 mg/kg/injection, schedule: Q01DX005 (ip), vehicle: saline with Tween-80
[2] = dose: 50.0 mg/kg/injection, schedule: Q01DX005 (ip), vehicle: Klucel (hydroxypropylcellulose) (HPC)
[3] = dose: 100.0 mg/kg/injection, schedule: Q01DX005 (ip), vehicle: Klucel (hydroxypropylcellulose) (HPC)

CCCCC(=O)OCC(=O)[C@]1(O)Cc2c(O)c3c(c(O)c2[C@@H](OC2CC(NC(=O)C(F)(F)F)C(O)C(C)O2)C1)C(=O)c1c(OC)cccc1C3=O (stereo not given in full)
T/C (dose: 0.5 mg/kg/injection, schedule: Q04DX003 (ip), vehicle: saline with Tween-80): 98 % of control
T/C (dose: 1.0 mg/kg/injection, schedule: Q04DX003 (ip), vehicle: saline with Tween-80): 104 % of control
T/C (dose: 1.4 mg/kg/injection, schedule: Q01DX009 (ip), vehicle: clinical formulation): 124 % of control
T/C (dose: 2.0 mg/kg/injection, schedule: Q04DX003 (ip), vehicle: saline with Tween-80): 99 % of control and 101 % of control
T/C (dose: 4.0 mg/kg/injection, schedule: Q04DX003 (ip), vehicle: saline with Tween-80): 100 % of control and 101 % of control and 105 % of control
T/C (dose: 6.48 mg/kg/injection, schedule: Q01DX009 (ip), vehicle: clinical formulation): 162 % of control
T/C (dose: 8.0 mg/kg/injection, schedule: Q04DX003 (ip), vehicle: saline with Tween-80): 114 % of control and 121 % of control and 97 % of control
T/C (dose: 9.38 mg/kg/injection, schedule: Q04DX003 (ip), vehicle: clinical formulation): 111 % of control
T/C (dose: 10.8 mg/kg/injection, schedule: Q01DX009 (ip), vehicle: clinical formulation): 189 % of control and 193 % of control
T/C (dose: 13.0 mg/kg/injection, schedule: Q04DX003 (ip), vehicle: clinical formulation): 124 % of control
T/C (dose: 16.0 mg/kg/injection, schedule: Q04DX003 (ip), vehicle: saline with Tween-80): 121 % of control
T/C (dose: 18.0 mg/kg/injection, schedule: Q01DX009 (ip), vehicle: clinical formulation): 224 % of control and 232 % of control
T/C (dose: 18.75 mg/kg/injection, schedule: Q04DX003 (ip), vehicle: clinical formulation): 118 % of control
T/C (dose: 30.0 mg/kg/injection, schedule: Q01DX004 (ip), vehicle: distilled water + Tween-80): 196 % of control and 333 % of control
T/C (dose: 30.0 mg/kg/injection, schedule: Q01DX009 (ip), vehicle: clinical formulation): 303 % of control and 560 % of control
T/C (dose: 32.4 mg/kg/injection, schedule: Q04DX003 (ip), vehicle: clinical formulation): 156 % of control
T/C (dose: 36.0 mg/kg/injection, schedule: Q04DX003 (ip), vehicle: clinical formulation): 163 % of control
T/C (dose: 37.5 mg/kg/injection, schedule: Q04DX003 (ip), vehicle: clinical formulation): 123 % of control
T/C (dose: 37.5 mg/kg/injection, schedule: Q04DX003 (ip), vehicle: saline with Tween-80): 156 % of control
T/C (dose: 37.5 mg/kg/injection, schedule: Q04DX003 (iv), vehicle: saline with Tween-80): 120 % of control
T/C (dose: 40.0 mg/kg/injection, schedule: Q01DX004 (ip), vehicle: distilled water + Tween-80): 171 % of control
T/C (dose: 50.0 mg/kg/injection, schedule: Q01DX004 (ip), vehicle: distilled water + Tween-80): 91 % of control
T/C (dose: 50.0 mg/kg/injection, schedule: Q01DX009 (ip), vehicle: clinical formulation): 110 % of control
T/C (dose: 54.0 mg/kg/injection, schedule: Q04DX003 (ip), vehicle: clinical formulation): 193 % of control
T/C (dose: 60.0 mg/kg/injection, schedule: Q01DX004 (ip), vehicle: distilled water + Tween-80): 89 % of control
T/C (dose: 60.0 mg/kg/injection, schedule: Q04DX003 (ip), vehicle: clinical formulation): 219 % of control
T/C (dose: 64.0 mg/kg/injection, schedule: Q04DX003 (ip), vehicle: saline with Tween-80): 153 % of control and 161 % of control
T/C (dose: 75.0 mg/kg/injection, schedule: Q04DX003 (ip), vehicle: clinical formulation): 189 % of control
T/C (dose: 75.0 mg/kg/injection, schedule: Q04DX003 (ip), vehicle: saline with Tween-80): 180 % of control
T/C (dose: 75.0 mg/kg/injection, schedule: Q04DX003 (iv), vehicle: saline with Tween-80): 106 % of control
T/C (dose: 90.0 mg/kg/injection, schedule: Q04DX003 (ip), vehicle: clinical formulation): 219 % of control
T/C (dose: 100.0 mg/kg/injection, schedule: Q04DX003 (ip), vehicle: clinical formulation): 242 % of control
T/C (dose: 128.0 mg/kg/injection, schedule: Q04DX003 (ip), vehicle: saline with Tween-80): 168 % of control and 180 % of control and 201 % of control
T/C (dose: 150.0 mg/kg/injection, schedule: Q04DX003 (ip), vehicle: saline with Tween-80): 243 % of control and 270 % of control
T/C (dose: 150.0 mg/kg/injection, schedule: Q04DX003 (iv), vehicle: saline with Tween-80): 153 % of control
T/C (dose: 256.0 mg/kg/injection, schedule: Q04DX003 (ip), vehicle: saline with Tween-80): 173 % of control and 190 % of control and 257 % of control
T/C (dose: 300.0 mg/kg/injection, schedule: Q04DX003 (ip), vehicle: clinical formulation): 87 % of control
T/C (dose: 300.0 mg/kg/injection, schedule: Q04DX003 (ip), vehicle: saline with Tween-80): 252 % of control
T/C (dose: 300.0 mg/kg/injection, schedule: Q04DX003 (iv), vehicle: saline with Tween-80): 222 % of control
T/C (dose: 512.0 mg/kg/injection, schedule: Q04DX003 (ip), vehicle: saline with Tween-80): 117 % of control
T/C (dose: 600.0 mg/kg/injection, schedule: Q04DX003 (iv), vehicle: saline with Tween-80): 169 % of control
T/C (dose: 1024.0 mg/kg/injection, schedule: Q04DX003 (ip), vehicle: saline with Tween-80): 107 % of control

CO/C=C1\CC(=O)N(c2cccc([N+](=O)[O-])c2)C1=O
T/C (dose: 25.0 mg/kg/injection, schedule: Q04DX003 (ip), vehicle: saline): 97 % of control
T/C (dose: 50.0 mg/kg/injection, schedule: Q04DX003 (ip), vehicle: saline): 96 % of control
T/C (dose: 100.0 mg/kg/injection, schedule: Q04DX003 (ip), vehicle: saline): 94 % of control and 96 % of control
T/C (dose: 200.0 mg/kg/injection, schedule: Q04DX003 (ip), vehicle: saline): 90 % of control
T/C (dose: 400.0 mg/kg/injection, schedule: Q04DX003 (ip), vehicle: saline): 97 % of control

O/N=C/C1CCCC[N-]1.[Co+3].[O-]/N=C/C1CCCC[N-]1.[O-]/N=C/C1CCCC[N-]1.[O-][Cl+3]([O-])([O-])O (stereo not given)
T/C (dose: 60.0 mg/kg/injection, schedule: Q01DX005 (ip), vehicle: saline with Tween-80): 97 % of control
T/C (dose: 120.0 mg/kg/injection, schedule: Q01DX005 (ip), vehicle: saline with Tween-80): 103 % of control
T/C [1]: 104 % of control

COC(=O)/C(C#N)=C/Sc1ccccc1
T/C (dose: 100.0 mg/kg/injection, schedule: Q01DX001 (ip), vehicle: saline with Tween-80): 101 % of control
T/C (dose: 200.0 mg/kg/injection, schedule: Q01DX001 (ip), vehicle: saline with Tween-80): 98 % of control
T/C (dose: 400.0 mg/kg/injection, schedule: Q01DX001 (ip), vehicle: saline with Tween-80): 97 % of control

COc1cc2c(cc1-c1coc3cc(O)ccc3c1=O)OCO2
T/C (dose: 1.1 mg/kg/injection, schedule: Q01DX005 (ip), vehicle: Klucel (hydroxypropylcellulose) (HPC)): 90 % of control
T/C (dose: 2.13 mg/kg/injection, schedule: Q01DX005 (ip), vehicle: Klucel (hydroxypropylcellulose) (HPC)): 86 % of control
T/C (dose: 4.25 mg/kg/injection, schedule: Q01DX005 (ip), vehicle: Klucel (hydroxypropylcellulose) (HPC)): 92 % of control and 96 % of control
T/C (dose: 8.5 mg/kg/injection, schedule: Q01DX005 (ip), vehicle: Klucel (hydroxypropylcellulose) (HPC)): 88 % of control and 94 % of control
T/C (dose: 68.0 mg/kg/injection, schedule: Q01DX005 (ip), vehicle: Klucel (hydroxypropylcellulose) (HPC)): 86 % of control

COc1cccc(/C=N\NC(=O)CNC(=O)Nc2ccc(Cl)c(Cl)c2)c1OC
T/C (dose: 15.0 mg/kg/injection, schedule: Q01DX005 (ip), vehicle: saline with Tween-80): 91 % of control
T/C (dose: 30.0 mg/kg/injection, schedule: Q01DX005 (ip), vehicle: saline with Tween-80): 88 % of control
T/C [1]: 95 % of control

O=C1c2cc3c(-c4ccccc4)sc(-c4ccccc4)c3cc2C(=O)c2c(O)ccc(O)c21
T/C (dose: 12.5 mg/kg/injection, schedule: Q04DX002 (ip), vehicle: saline with Tween-80): 90 % of control
T/C (dose: 25.0 mg/kg/injection, schedule: Q04DX002 (ip), vehicle: saline with Tween-80): 91 % of control
T/C (dose: 50.0 mg/kg/injection, schedule: Q04DX002 (ip), vehicle: saline with Tween-80): 98 % of control and 88 % of control

OCC1(C2CCN(Cc3ccccc3)CC2)OCCO1
T/C (dose: 25.0 mg/kg/injection, schedule: Q01DX005 (ip), vehicle: saline): 101 % of control
T/C (dose: 50.0 mg/kg/injection, schedule: Q01DX005 (ip), vehicle: saline): 100 % of control
T/C (dose: 100.0 mg/kg/injection, schedule: Q01DX005 (ip), vehicle: saline): 101 % of control

CCCCOC(=O)C(CC)c1ccccc1 (stereo not given)
T/C (dose: 100.0 mg/kg/injection, schedule: Q04DX003 (ip), vehicle: saline with Tween-80): 114 % of control
T/C (dose: 200.0 mg/kg/injection, schedule: Q04DX003 (ip), vehicle: saline with Tween-80): 114 % of control
T/C (dose: 400.0 mg/kg/injection, schedule: Q04DX003 (ip), vehicle: saline with Tween-80): 112 % of control

CC(O)C(NC(=O)CNC(=O)CNC(=O)OCc1ccccc1)C(=O)O (stereo not drawn) (Cbz-Gly-Gly-[ξT]-OH)
T/C [2]: 96 % of control
T/C [3]: 98 % of control
T/C (dose: 200.0 mg/kg/injection, schedule: Q01DX005 (ip), vehicle: Klucel (hydroxypropylcellulose) (HPC)): 95 % of control

CC(C)(C)c1ccc(/C=N/NC(=O)c2cccnc2)cc1
T/C [2]: 98 % of control
T/C [3]: 103 % of control
